From paper PMC9030827, “In Vitro Effects of Mitochondria-Targeted Antioxidants in a Small-Cell Carcinoma of the Ovary of Hypercalcemic Type and in Type 1 and Type 2 Endometrial Cancer” (Biomedicines, 2022)

What was measured:
COV434 cells [1] = assay: Nuclear changes by Höechst staining; format: cell-based, human; settings: COV434, 72 h, 5 μM Mito6_TPP, 10 μM Mito6_isoq.; for Nucleus shape and chromatin condensation (Höechst staining): 20 μM Mito6_picol.
Description: (§1) Morphological changes in all cell lines were evaluated by phase-contrast microscopy (Eclipse TS100 Inverted Microscope, Nikon, Tokyo, Japan) and Giemsa staining. […] The cells were plated in 24-well plates with coverslips using the densities of 1 × 10^5 cells/well in Ishikawa and Hec50co and 2.5 × 10^5 cells/well in COV434 and HFF-1. After adherence, the cells were treated with Mito6_TPP (5 μM), Mito6_picol. (20 μM), or Mito6_isoq. (10 μM) and incubated at 37 °C with 5% CO2 for 72 h. For Giemsa staining, the cells were fixated with paraformaldehyde 4% in Phosphate Buffered Saline (PBS) for 15 min, stained with Giemsa solution for 30 min, mounted with DPX, and observed through bright field microscopy. For Höechst staining, the cells were incubated with 0.5 μg/mL Höechst 33342 in PBS for 20 min in the dark, mounted in Fluoroshield, and observed under a fluorescence microscope equipped with an excitation filter with maximum transmission at 360/400 nm. In both stainings, the cells were observed using the microscope Eclipse CI (Nikon, Japan) and the images were processed with Nikon NIS Elements Image Software (Nikon, Japan).

Ishikawa cells [2] = assay: Nuclear changes by Höechst staining; format: cell-based, human; settings: 72 h, 5 μM Mito6_TPP, 10 μM Mito6_isoq.; for Nucleus shape and chromatin condensation (Höechst staining): 20 μM Mito6_picol.
Description: as §1

Hec50co cells [3] = assay: Nuclear changes by Höechst staining; format: cell-based, human; settings: 72 h, 5 μM Mito6_TPP, 10 μM Mito6_isoq.; for Nucleus shape and chromatin condensation (Höechst staining): 20 μM Mito6_picol.
Description: as §1

COV434 cells [4] = assay: Neutral red (NR) cell viability assay; format: cell-based; settings: Homo sapiens
Description: (§2) Experiments were performed using the following cell lines: Ishikawa, Hec50co, COV434, and HFF-1. The Ishikawa cell line (RRID: CVCL_2529) was established from an endometrial adenocarcinoma. The Hec50co cell line (RRID: CVCL_4Y59) consists of poorly differentiated endometrial tumor cells isolated from a patient with advanced disease. Both the Ishikawa and Hec50co cell lines were kindly provided by Dr. Kim K. Leslie (The University of New Mexico Health Sciences Center, Albuquerque, NM, USA). COV434 (RRID: CVCL_2010) were initially isolated from a patient diagnosed with a granulosa cell tumor but were recently classified as cells from a small-cell carcinoma of the ovary, hypercalcemic type.The COV434 cells were purchased from the European Collection of Authenticated Cell Cultures (ECACC) (#07071909). HFF-1 (RRID: CVCL_3285) is an immortalized human foreskin fibroblasts cell line, obtained from the American Type Culture Collection (ATCC), which was used as control, as they are non-tumorous cells. The Ishikawa and Hec50co cells were maintained in Dulbecco’s Modified Eagle Medium/F12 (DMEM/F12) supplemented with 5% Foetal Bovine Serum (FBS). COV434 cells were maintained in DMEM/F12 supplemented with 10% FBS. HFF-1 were maintained in Roswell Park Memorial Institute 1640 (RPMI 1640) supplemented with 10% FBS. All mediums were supplemented with 1% AB-AM and all cells were kept at 37 °C with 5% CO2. The treatment with the compounds was done in the respective cell medium supplemented with 2% FBS and 24 h after platting the cells in the culture medium with 5% FBS to allow their adherence.
(§3) The Ishikawa, Hec50co, COV434, and HFF-1 cell lines were plated at a density of 5 × 10^4 cells/well in transparent 96-well plates. After 24 h, the cells were treated with Mito6_TPP, Mito6_picol., or Mito6_isoq. (0.01–100 μM) and incubated at 37 °C with 5% CO2 for 24, 48, or 72 h. […] The conditions of the methylthiazolyldiphenyl-tetrazolium bromide (MTT) assay were adapted from the work of Banerjee et al.. Briefly, MTT was added to a final concentration of 0.5 mg/mL, and the cells were incubated for 3 h at 37 °C with 5% CO2. After the 3 h, purple MTT formazan crystals were dissolved by agitation for 15 min in a solution of DMSO/isopropanol (ratio 3:1) and quantified spectrophotometrically at 540 nm. The neutral red (NR) assay conditions were based on the work developed by Repetto et al.. Briefly, after the incubation time, cells were incubated with NR at 40 μg/mL in an FBS-free cell medium for 3 h. The cells were then incubated with a solution of 50% ethanol (96% v/v), 49% deionized water, and 1% glacial acetic acid, with shaking for 15 min. The NR extracted from the cells was measured at 540 nm. The LDH cytotoxicity assay was not performed on the HFF-1 cells due to the lack of evidence of cell death at the concentrations tested. After the incubation time, this assay was performed using a Thermo Scientific Pierce LDH Cytotoxicity Assay Kit according to the manufacturer’s instructions. For all assays, the absorbance was read using a BioTek Synergy HTX Multi-Mode Microplate Reader equipped with BioTek Gen5 Data Collection and Analysis Software (BioTek Instruments, Winooski, VT, USA).
(§4) Data were evaluated using the one- or two-way analysis of variance (ANOVA) test followed by Bonferroni’s test for multiple comparisons. The data presented was expressed as mean ± SEM (Standard Error of the Mean) of a minimum of three and a maximum of seven independent experiments performed in triplicate. Values of p < 0.05 were considered statistically significant. Half of the maximal effective concentration (EC50) values were estimated by interpolation of dose-response curves and reported as a mean with a 95% confidence interval (CI 95%). All statistical analysis was performed using GraphPad Prism Software 8.0 (GraphPad Software, Inc., San Diego, CA, USA). […]

Ishikawa cells [5] = assay: Neutral red (NR) cell viability assay; format: cell-based; settings: Homo sapiens
Description: as §2, §3, §4

Hec50co cells [6] = assay: Neutral red (NR) cell viability assay; format: cell-based; settings: Homo sapiens
Description: as §2, §3, §4

COV434 cells [7] = assay: MTT cell viability assay; format: cell-based; settings: Homo sapiens
Description: as §2, §3, §4

Ishikawa cells [8] = assay: MTT cell viability assay; format: cell-based; settings: Homo sapiens
Description: as §2, §3, §4

Hec50co cells [9] = assay: MTT cell viability assay; format: cell-based; settings: Homo sapiens
Description: as §2, §3, §4

[10] = COV434, 24 hours of incubation, read-out: EC50 (decrease of viability), NR assay
[11] = COV434, 48 h of incubation, read-out: EC50 (decrease of viability), NR Assay
[12] = COV434, 72 hours of incubation, read-out: EC50 (decrease of viability), NR assay
[13] = 24 hours of incubation, read-out: EC50 (decrease of viability), NR assay
[14] = 48 h of incubation, read-out: EC50 (decrease of viability), NR Assay
[15] = 72 hours of incubation, read-out: EC50 (decrease of viability), NR assay
[16] = Hec50co, 24 hours of incubation, read-out: EC50 (decrease of viability), NR assay
[17] = Hec50co, 48 h of incubation, read-out: EC50 (decrease of viability), NR Assay
[18] = Hec50co, 72 hours of incubation, read-out: EC50 (decrease of viability), NR assay
[19] = COV434, 24 hours of incubation, read-out: EC50 (decrease of viability), MTT assay
[20] = COV434, 48 h of incubation, read-out: EC50 (decrease of viability), MTT Assay
[21] = COV434, 72 hours of incubation, read-out: EC50 (decrease of viability), MTT assay
[22] = 24 hours of incubation, read-out: EC50 (decrease of viability), MTT assay
[23] = 48 h of incubation, read-out: EC50 (decrease of viability), MTT Assay
[24] = 72 hours of incubation, read-out: EC50 (decrease of viability), MTT assay
[25] = Hec50co, 24 hours of incubation, read-out: EC50 (decrease of viability), MTT assay
[26] = Hec50co, 48 h of incubation, read-out: EC50 (decrease of viability), MTT Assay
[27] = Hec50co, 72 hours of incubation, read-out: EC50 (decrease of viability), MTT assay
[28] = 24 h, read-out: EC50 (decrease of viability), NR assay
[29] = 48 h, read-out: EC50 (decrease of viability), NR Assay
[30] = 72 h, read-out: EC50 (decrease of viability), NR assay
[31] = 24 h, read-out: EC50 (decrease of viability), MTT assay
[32] = 48 h, read-out: EC50 (decrease of viability), MTT Assay
[33] = 72 h, read-out: EC50 (decrease of viability), MTT assay

Row | Structure (SMILES) | Nuclear fragmentation (Höechst staining) (COV434 cells [1]) | Nucleus shape and chromatin condensation (Höechst staining) (COV434 cells [1]) | Nuclear fragmentation (Höechst staining) (Ishikawa cells [2]) | Nucleus shape and chromatin condensation (Höechst staining) (Ishikawa cells [2]) | Nuclear fragmentation (Höechst staining) (Hec50co cells [3]) | Nucleus shape and chromatin condensation (Höechst staining) (Hec50co cells [3]) | EC50 (COV434 cells [4]; [10]) [µM] | EC50 (COV434 cells [4]; [11]) [µM] | EC50 (COV434 cells [4]; [12]) [µM] | EC50 (Ishikawa cells [5]; [13]) [µM] | EC50 (Ishikawa cells [5]; [14]) [µM] | EC50 (Ishikawa cells [5]; [15]) [µM] | EC50 (Hec50co cells [6]; [16]) [µM] | EC50 (Hec50co cells [6]; [17]) [µM] | EC50 (Hec50co cells [6]; [18]) [µM] | EC50 (COV434 cells [7]; [19]) [µM] | EC50 (COV434 cells [7]; [20]) [µM] | EC50 (COV434 cells [7]; [21]) [µM] | EC50 (Ishikawa cells [8]; [22]) [µM] | EC50 (Ishikawa cells [8]; [23]) [µM] | other results
1 | O=C(/C=C/c1ccc(O)c(O)c1)NCCCCCCCCCC[n+]1ccc2ccccc2c1 [Mito6_isoq.] | nuclear fragmentation visible | changes in the nucleus shape and the chromatin condensation | nuclear fragmentation visible | changes in the nucleus shape and the chromatin condensation | nuclear fragmentation visible | changes in the nucleus shape and the chromatin condensation | 51.6 | 40 | 30.8 | 55.3 | 36.9 | 28.9 | > 100 | 150 | 87.6 | 29.5 | 7.16 | 3.16 | 29.9 | 15.4 | EC50 (Ishikawa cells [8]; [24]): 7.16 µM; EC50 (Hec50co cells [9]; [25]): 19 µM; EC50 (Hec50co cells [9]; [26]): 9.55 µM; EC50 (Hec50co cells [9]; [27]): 6.59 µM
2 | Cc1cc[n+](CCCCCCCCCCNC(=O)/C=C/c2ccc(O)c(O)c2)cc1 [Mito6_picol.] |  | did not induce any morphological changes |  | did not induce any morphological changes |  | did not induce any morphological changes | 87.8 | 62.5 | 34.2 | > 100 | 84.4 | 59.4 | > 100 | 197 | 92 | 53.2 | 15.9 | 6.6 | 42.9 | 23.6 | EC50 (Ishikawa cells [8]; [24]): 10.8 µM; EC50 (Hec50co cells [9]; [25]): 27.3 µM; EC50 (Hec50co cells [9]; [26]): 13.8 µM; EC50 (Hec50co cells [9]; [27]): 17.2 µM
3 | O=C(/C=C/c1ccc(O)c(O)c1)NCCCCCCCCCC[P+](c1ccccc1)(c1ccccc1)c1ccccc1 [Mito6_TPP] | nuclear fragmentation visible | changes in the nucleus shape and the chromatin condensation | nuclear fragmentation visible | changes in the nucleus shape and the chromatin condensation | nuclear fragmentation visible | changes in the nucleus shape and the chromatin condensation | 13.6 | 9.11 | 4.01 |  |  |  |  |  |  | 4.64 | 2.37 | 0.577 |  |  | EC50 (Ishikawa cells [5]; [28]): 33.2 µM; EC50 (Ishikawa cells [5]; [29]): 15.7 µM; EC50 (Ishikawa cells [5]; [30]): 11.2 µM; EC50 (Hec50co cells [6]; [28]): 53.6 µM; EC50 (Hec50co cells [6]; [29]): 35.4 µM; EC50 (Hec50co cells [6]; [30]): 23.9 µM; EC50 (Ishikawa cells [8]; [31]): 9.14 µM; EC50 (Ishikawa cells [8]; [32]): 2.45 µM; EC50 (Ishikawa cells [8]; [33]): 0.925 µM; EC50 (Hec50co cells [9]; [31]): 7.75 µM; EC50 (Hec50co cells [9]; [32]): 1.87 µM; EC50 (Hec50co cells [9]; [33]): 0.847 µM
